According to patent US20140051650A1, “VAGINAL COMPOSITIONS BASED ON ALKYL POLYGLUCOSIDES” (EFFIK S.A., priority 2011, published 2014):

How the values were obtained:
Format in all cases: cell-based
[1] = tested on: Streptococcus agalactiae; test: Minimum Inhibitory Concentration (MIC) on agarised medium against Streptococcus agalactiae
Procedure: The assay was carried out on an M-Ha medium+blood at 5%. The medium was prepared at a concentration 33% higher with respect to the final one used in the test corresponding to the one indicated by the supplier. After sterilisation in autoclave, the medium was balanced at the temperature of 48° C. and added with horse blood at the concentration of 6.6% (33% higher than the final concentration of the assay). 15 ml aliquots of M-Ha medium+blood were transferred into 50 ml falcon test tubes maintained at 48° C., added with 5 ml of the dilutions of the substances to be assayed, mixed, poured into Petri dishes and left to solidify. Twenty-five bacterial inoculums, each with approximate volume of about 5 μl and containing about 10^5 ufc, were deposited on the surface of the M-Ha medium+blood of each plate. After incubation at 37° C. for 18 hours the minimum inhibitory concentration (MIC) defined as the minimum concentration of substance capable of inhibiting a bacterial growth noticeable to the naked eye at the area of deposition of the inoculums was read.
In the test with Streptococcus agalactiae the minimum inhibitory concentrations in the assay in liquid medium, regarding which only the bactericide minimum concentration values are indicated, could not be determined with sufficient reliability due to the turbidity of the solutions containing the substances. “Determination of the Minimum Inhibitory Concentration on Agarised Medium” was carried out to obtain the MIC values.

[2] = tested on: Lactobacillus crispatus NCIMB 4505; test: MIC against Lactobacillus crispatus; conditions: substance alone
Procedure: (§1) The vaginal lactobacillus strains used are the NCIMB 4505 strain of Lactobacillus crispatus, the NCIMB 13279 strain of Lactobacillus jensenii and NCIMB 702820 strain of Lactobacillus gasseri. [table] The other assayed microbial strains were cultured in the liquid media and in the incubation conditions specified in table A, following the operating procedure described above. The assay was carried out in 96-well microtitre plates. 50 μl of substance solution at the “mother” concentration alongside 50 μl of liquid medium at double concentration were deposited in the first well of each of the 8 rows while 50 μl of liquid medium at normal concentration were deposited in the remaining 11 wells. Starting from the first well of each row, 50 μl volumes were transferred from each well to the subsequent one 10 times, thus obtaining a series of 11 dilutions after doubling. The 12th well of each row was kept substance-free as a function of positive control of the bacterial growth. Subsequently, 50 μl of diluted bacterial inoculum as specified previously were deposited in all wells of the plate, except for the 11th of each row. Only the liquid medium at single concentration but bacteria-free, was deposited in the 11th well, with the aim of providing negative control for each row. The described scheme was used for the assay with each of the assayed microbial strains. […]

[3] = tested on: Lactobacillus crispatus NCIMB 4505; test: MBC against Lactobacillus crispatus; conditions: substance alone
Procedure: (§2) The vaginal lactobacillus strains used are the NCIMB 4505 strain of Lactobacillus crispatus, the NCIMB 13279 strain of Lactobacillus jensenii and NCIMB 702820 strain of Lactobacillus gasseri. [table] The other assayed microbial strains were cultured in the liquid media and in the incubation conditions specified in table A, following the operating procedure described above. Immediately after determining the value of the MIC for each substance, a volume equivalent to 50 μl was taken from each well and streaked on the surface of plates containing the solid medium. The plates were subsequently incubated at the conditions indicated for each microbial strain. After incubation at 37° C. for 24 hours, the number of colonies grown on the medium surface was counted thus determining the number of bacteria that survived after 24 hours of contact with the substance at the concentration present in the well. The MBC value defined as the lowest concentration of each substance capable of reducing the bacterial load by 99.9% in the previously defined assay conditions was determined through comparison between the number of bacteria that survived in each well and that of the bacterial inoculum deposited initially.

[4] = tested on: Lactobacillus jensenii NCIMB 13279; test: MIC against Lactobacillus jensenii; conditions: substance alone
Procedure: as §1

[5] = tested on: Lactobacillus jensenii NCIMB 13279; test: MBC against Lactobacillus jensenii; conditions: substance alone
Procedure: as §2

[6] = tested on: Lactobacillus gasseri NCIMB 702820; test: MIC against Lactobacillus gasseri; conditions: substance alone
Procedure: as §1

[7] = tested on: Lactobacillus gasseri NCIMB 702820; test: MBC against Lactobacillus gasseri; conditions: substance alone
Procedure: as §2

In the case of “caprylyl/capryl glucoside/C8-C10 alkyl polyglucoside [Substance A1]”, the “MIC (minimum inhibiting concentration)” value ([1]; strain 2, substance alone) is reported as 0.093%, the “MIC (minimum inhibiting concentration)” value ([1]; strain 5, substance alone) is reported as 0.093% and the “MIC (minimum inhibiting concentration)” value ([1]; strain 6, substance alone) is reported as 0.048%. The “MIC (minimum inhibiting concentration)” value ([1]; strain 7, substance alone) was 0.093%, the “MIC (minimum inhibiting concentration)” value ([1]; strain 8, substance alone) was 0.19% and the “MIC (minimum inhibiting concentration)” value ([1]; strain 9, substance alone) was 0.093%. For the same substance, the “MIC (minimum inhibiting concentration)” value ([1]; strain 10, substance alone) was 0.19%, the “MIC (minimum inhibiting concentration)” value ([1]; strain 11, substance alone) was 0.093% and the “MIC (minimum inhibiting concentration)” value ([1]; strain 12, substance alone) was 0.093%. For the same substance, the “MIC (minimum inhibiting concentration)” value ([1]; strain 13, substance alone) was 0.093%, the “MIC (minimum inhibiting concentration)” value ([1]; strain 14, substance alone) was 0.093% and the “MIC (minimum inhibiting concentration)” value ([1]; strain 15, substance alone) was 0.048%. For the same substance, the “MIC (minimum inhibiting concentration)” value ([1]; strain 16, substance alone) was 0.093%, the “MIC (minimum inhibiting concentration)” value ([1]; strain 17, substance alone) was 0.048% and the “MIC (minimum inhibiting concentration)” value ([1]; strain 18, substance alone) was 0.19%. The “MIC (minimum inhibiting concentration)” value ([1]; strain 19, substance alone) was 0.093%, the “MIC (minimum inhibiting concentration)” value ([1]; strain 20, substance alone) was 0.048% and the “MIC (minimum inhibiting concentration)” value ([1]; strain 21, substance alone) was 0.048%. The “MIC (minimum inhibiting concentration)” value ([1]; strain 22, substance alone) was 0.093%, the “MIC (minimum inhibiting concentration)” value ([1]; strain 23, substance alone) was 0.093% and the “MIC (minimum inhibiting concentration)” value ([1]; strain 24, substance alone) was 0.093%. For the same substance, the “MIC (minimum inhibiting concentration)” value ([1]; strain 25, substance alone) was 0.048%, the “MIC (minimum inhibiting concentration)” value ([1]; strain 12386, substance alone) was 0.093% and the “MIC (minimum inhibiting concentration)” value ([1]; strain 12403, substance alone) was 0.093%. For the same substance, the “MIC (minimum inhibiting concentration)” value ([1]; strain 27956, substance alone) was 0.093%, the MIC [2] was 0.097% and the MBC [3] was 0.193%. It also gave an MIC [4] of 0.193%, an MBC [5] of 0.193% and an MIC [6] of 0.097%. It also gave an MBC [7] of 0.193%.
For “lauryl glucoside/C12-C16 alkyl polyglucoside [Substance A2]”, the “MIC (minimum inhibiting concentration)” value ([1]; strain 2, substance alone) was 0.0097%, the “MIC (minimum inhibiting concentration)” value ([1]; strain 5, substance alone) was 0.019% and the “MIC (minimum inhibiting concentration)” value ([1]; strain 6, substance alone) was 0.0097%. The “MIC (minimum inhibiting concentration)” value ([1]; strain 7, substance alone) was 0.0097%, the “MIC (minimum inhibiting concentration)” value ([1]; strain 8, substance alone) was 0.019% and the “MIC (minimum inhibiting concentration)” value ([1]; strain 9, substance alone) was 0.0097%. For the same substance, the “MIC (minimum inhibiting concentration)” value ([1]; strain 10, substance alone) was 0.019%, the “MIC (minimum inhibiting concentration)” value ([1]; strain 11, substance alone) was 0.0097% and the “MIC (minimum inhibiting concentration)” value ([1]; strain 12, substance alone) was 0.0097%. For the same substance, the “MIC (minimum inhibiting concentration)” value ([1]; strain 13, substance alone) was 0.0097%, the “MIC (minimum inhibiting concentration)” value ([1]; strain 14, substance alone) was 0.0097% and the “MIC (minimum inhibiting concentration)” value ([1]; strain 15, substance alone) was 0.019%. The “MIC (minimum inhibiting concentration)” value ([1]; strain 16, substance alone) was 0.0097%, the “MIC (minimum inhibiting concentration)” value ([1]; strain 17, substance alone) was 0.0097% and the “MIC (minimum inhibiting concentration)” value ([1]; strain 18, substance alone) was 0.019%. The “MIC (minimum inhibiting concentration)” value ([1]; strain 19, substance alone) was 0.0097%, the “MIC (minimum inhibiting concentration)” value ([1]; strain 20, substance alone) was 0.0097% and the “MIC (minimum inhibiting concentration)” value ([1]; strain 21, substance alone) was 0.0097%. The “MIC (minimum inhibiting concentration)” value ([1]; strain 22, substance alone) was 0.0097%, the “MIC (minimum inhibiting concentration)” value ([1]; strain 23, substance alone) was 0.0097% and the “MIC (minimum inhibiting concentration)” value ([1]; strain 24, substance alone) was 0.0097%. The “MIC (minimum inhibiting concentration)” value ([1]; strain 25, substance alone) was 0.0097%, the “MIC (minimum inhibiting concentration)” value ([1]; strain 12386, substance alone) was 0.0097% and the “MIC (minimum inhibiting concentration)” value ([1]; strain 12403, substance alone) was 0.0097%. For the same substance, the “MIC (minimum inhibiting concentration)” value ([1]; strain 27956, substance alone) was 0.019%, the MIC [2] was 0.038% and the MBC [3] was 0.077%. The MIC [4] was 0.077%, the MBC [5] was 0.077% and the MIC [6] was 0.077%. For the same substance, the MBC [7] was 0.077%.
